Results on 19 compounds are retold here after US20180327402A1, “TRIAZOLOPYRIDINE COMPOUNDS AND METHODS OF USE THEREOF” (Genentech, Inc., priority 2015, published 2018).

Experiment [1] addresses T1, isolated recombinant JAK1 kinase domain (Homo sapiens, UniProt P23458).
T1 construct: isolated recombinant JAK1 and JAK2 kinase domain
Put plainly: JAK enzyme assay (Caliper LabChip), JAK1. Particulars: 1.5 nM JAK1, ATP 25 μM, 22° C., 30 minutes; Morrison tight binding model. The class given is biochemical. The method, then:
(§1) The activity of the isolated recombinant JAK1 and JAK2 kinase domain was measured by monitoring phosphorylation of a peptide derived from JAK3 (Val-Ala-Leu-Val-Asp-Gly-Tyr-Phe-Arg-Leu-Thr-Thr, fluorescently labeled on the N-terminus with 5-carboxyfluorescein) using the Caliper LabChip® technology (Caliper Life Sciences, Hopkinton, Mass.). To determine inhibition constants (Ki), compounds were diluted serially in DMSO and added to 50 μL kinase reactions containing purified enzyme (1.5 nM JAK1, or 0.2 nM JAK2), 100 mM HEPES buffer (pH 7.2), 0.015% Brij-35, 1.5 μM peptide substrate, ATP (25 μM), 10 mM MgCl2, 4 mM DTT at a final DMSO concentration of 2%. Reactions were incubated at 22° C. in 384-well polypropylene microtiter plates for 30 minutes and then stopped by addition of 25 μL of an EDTA containing solution (100 mM HEPES buffer (pH 7.2), 0.015% Brij-35, 150 mM EDTA), resulting in a final EDTA concentration of 50 mM. After termination of the kinase reaction, the proportion of phosphorylated product was determined as a fraction of total peptide substrate using the Caliper LabChip® 3000 according to the manufacturer's specifications. Ki values were then determined using the Morrison tight binding model (Morrison, J. F., Biochim. Biophys. Acta. 185:269-296 (1969); William, J. W. and Morrison, J. F., Meth. Enzymol., 63:437-467 (1979)) modified for ATP-competitive inhibition [Ki ═Ki,app/(1+[ATP]/Km,app)].

For experiment [2], the target named is T2, isolated recombinant JAK2 kinase domain (Homo sapiens, UniProt O60674).
T2 construct: isolated recombinant JAK1 and JAK2 kinase domain
Put plainly: JAK enzyme assay (Caliper LabChip), JAK2. Conditions: 0.2 nM JAK2, ATP 25 μM, 22° C., 30 minutes; Morrison tight binding model. The class given is biochemical. On the procedure:
as §1

T1 sequence (P23458 875-1153 limits assumed): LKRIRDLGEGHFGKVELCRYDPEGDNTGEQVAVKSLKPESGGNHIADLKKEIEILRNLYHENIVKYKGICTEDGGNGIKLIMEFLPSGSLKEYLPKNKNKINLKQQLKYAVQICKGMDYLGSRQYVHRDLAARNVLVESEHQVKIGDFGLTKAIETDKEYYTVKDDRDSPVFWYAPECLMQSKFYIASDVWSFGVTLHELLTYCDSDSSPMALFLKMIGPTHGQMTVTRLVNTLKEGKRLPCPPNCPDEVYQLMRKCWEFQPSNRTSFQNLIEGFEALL
T2 sequence (O60674 849-1124 limits assumed): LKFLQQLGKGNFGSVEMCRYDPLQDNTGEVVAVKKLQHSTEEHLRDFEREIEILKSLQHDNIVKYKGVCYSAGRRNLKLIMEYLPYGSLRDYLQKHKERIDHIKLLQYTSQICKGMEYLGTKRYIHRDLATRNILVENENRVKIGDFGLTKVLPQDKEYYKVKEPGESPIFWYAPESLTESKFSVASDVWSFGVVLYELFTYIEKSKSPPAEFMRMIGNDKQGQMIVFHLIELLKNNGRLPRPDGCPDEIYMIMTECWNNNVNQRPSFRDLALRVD

The term Ki denotes a dissociation constant, usually derived from enzyme kinetics or from competition with a known ligand. For `CN(C)CCCn1cc(Nc2nc3c(N4CCC(CO)(c5ccc(Cl)cc5)CC4)cccn3n2)cn1` [Compound 1-8, [4-(4-chlorophneyl)-1-[2-[[1-[3-(dimethylamino)propyl]pyrazol-4-yl]amino]-[1,2,4]triazolo[1,5-a]pyridin-8-yl]-4-piperidyl]methanol; formic acid], the inhibition constant Ki stood at 0.56 nM in experiment [1] and 0.22 nM in experiment [2].

Turning to `CN1CCN(CCCn2cc(Nc3nc4c(N5CCC(CO)(c6ccc(Cl)cc6)CC5)cccn4n3)cn2)CC1` [Compound 1-9, [4-(4-chlorophenyl)-1-[2-[[1-[3-(4-methylpiperazin-1-yl)propyl]pyrazol-4-yl]amino]-[1,2,4]triazolo[1,5-a]pyridin-8-yl]-4-piperidyl]methanol; formic acid], the inhibitory constant (Ki) in experiment [1] worked out at 0.55 nM; in experiment [2] it was 0.26 nM.

For `OCC1(c2ccc(Cl)cc2)CCN(c2cccn3nc(Nc4cnn(CCCN5CCOCC5)c4)nc23)CC1` [Compound 1-10, [4-(4-chlorophenyl)-1-[2-[[1-(3-morpholinopropyl)pyrazol-4-yl]amino]-[1,2,4]triazolo[1,5-a]pyridin-8-yl]-4-piperidyl]methanol; formic acid], the inhibition constant Ki in experiment [1] was 0.33 nM; in experiment [2], 0.16 nM.

For `CCCCn1cc(Nc2nc3c(N4CCC(CO)(c5ccc(Cl)cc5)CC4)cccn3n2)cn1` [Compound 1-11, [1-[2-[(1-butylpyrazol-4-yl)amino]-[1,2,4]triazolo[1,5-a]pyridin-8-yl]-4-(4-chlorophenyl)-4-piperidyl]methanol], the Ki in experiment [1] was determined as 0.42 nM; in experiment [2] it was 0.31 nM.

With `CN1CCC(n2cc(Nc3nc4c(N5CCC(CO)(c6ccc(Cl)cc6)CC5)cccn4n3)cn2)CC1` [Compound 1-12, [4-(4-chlorophenyl)-1-[2-[[1-(1-methyl-4-piperidyl)pyrazol-4-yl]amino]-[1,2,4]triazolo[1,5-a]pyridin-8-yl]-4-piperidyl]methanol; formic acid], the Ki in experiment [1] stood at 0.27 nM; in experiment [2] it was 0.19 nM.

For the compound `CC(C)CCn1cc(Nc2nc3c(N4CCC(CO)(c5ccc(Cl)cc5)CC4)cccn3n2)cn1` [Compound 1-13, [4-(4-chlorophenyl)-1-[2-[(1-isopentylpyrazol-4-yl)amino]-[1,2,4]triazolo[1,5-a]pyridin-8-yl]-4-piperidyl]methanol; formic acid], the inhibition constant (Ki) is 0.75 nM in experiment [1] and 0.44 nM in experiment [2].

On to `OCC1(c2ccc(Cl)cc2)CCN(c2cccn3nc(Nc4cnn(CC(F)F)c4)nc23)CC1` [Compound 1-14, [4-(4-chlorophenyl)-1-[2-[[1-(2,2-difluoroethyl)pyrazol-4-yl]amino]-[1,2,4]triazolo[1,5-a]pyridin-8-yl]-4-piperidyl]methanol], for which the inhibition constant Ki is 0.16 nM in experiment [1] and 0.13 nM in experiment [2].

As to `OCCn1cc(Nc2nc3c(N4CCC(CO)(c5ccc(Cl)cc5)CC4)cccn3n2)cn1` [Compound 1-15, 2-[4-[[8-[4-(4-chlorophenyl)-4-(hydroxymethyl)-1-piperidyl]-[1,2,4]triazolo[1,5-a]pyridin-2-yl]amino]pyrazol-1-yl]ethanol], the inhibition constant Ki is 0.11 nM in experiment [1] and 0.089 nM in experiment [2].

As to `O=C(CCC(F)(F)F)N1CC=C(c2cccn3nc(Nc4cnn(CC(F)F)c4)nc23)CC1` [Compound 2-1, 1-[4-[2-[[1-(2,2-difluoroethyl)pyrazol-4-yl]amino]-[1,2,4]triazolo[1,5-a]pyridin-8-yl]-3,6-dihydro-2H-pyridin-1-yl]-4,4,4-trifluoro-butan-1-one], the Ki in experiment [1] turned out to be 0.74 nM; in experiment [2] it was 0.88 nM.

Regarding `O=C(CCC(F)(F)F)N1CC=C(c2cccn3nc(Nc4cnn(CCO)c4)nc23)CC1` [Compound 2-2, 4,4,4-trifluoro-1-[4-[2-[[1-(2-hydroxyethyl)pyrazol-4-yl]amino]-[1,2,4]triazolo[1,5-a]pyridin-8-yl]-3,6-dihydro-2H-pyridin-1-yl]butan-1-one], the results for the inhibitory constant (Ki) in experiment [1] and in experiment [2] were 0.87 nM and 0.71 nM, respectively.

As for `COCCOc1ccc(COc2ccc(-c3cccn4nc(Nc5cnn(C)c5)nc34)cc2)cn1` [Compound 3-1, 8-[4-[[6-(2-methoxyethoxy)-3-pyridyl]methoxy]phenyl]-N-(1-methylpyrazol-4-yl)-[1,2,4]triazolo[1,5-a]pyridin-2-amine], the inhibition constant Ki in experiment [1] is 0.63 nM; in experiment [2] it was 0.32 nM.

In the case of `CNCCn1cc(Nc2nc3c(-c4ccc(OCc5ccc(OCCOC)nc5)cc4)cccn3n2)cn1` [Compound 3-2, 8-[4-[[6-(2-methoxyethoxy)-3-pyridyl]methoxy]phenyl]-N-[1-[2-(methylamino)ethyl]pyrazol-4-yl]-[1,2,4]triazolo[1,5-a]pyridin-2-amine], the Ki in experiment [1] was 2.4 nM; in experiment [2] it was 0.86 nM.

With `COCCOc1ccc(COc2ccc(-c3cccn4nc(Nc5cnn(C6CCNCC6)c5)nc34)cc2)cn1` [Compound 3-3, 8-[4-[[6-(2-methoxyethoxy)-3-pyridyl]methoxy]phenyl]-N-[1-(4-piperidyl)pyrazol-4-yl]-[1,2,4]triazolo[1,5-a]pyridin-2-amine], the figures for the Ki in experiment [1] and in experiment [2] were 0.82 nM and 0.2 nM, respectively.

`COCCOc1ccc(COc2ccc(-c3cccn4nc(Nc5cnn(C[C@H]6CCCN6)c5)nc34)cc2)cn1` [Compound 3-4, 8-[4-[[6-(2-methoxyethoxy)-3-pyridyl]methoxy]phenyl]-N-[1-[[(2R)-pyrrolidin-2-yl]methyl]pyrazol-4-yl]-[1,2,4]triazolo[1,5-a]pyridin-2-amine]: the Ki in experiment [1] was 1.9 nM; in experiment [2] it was 0.48 nM.

With `CNCCCn1cc(Nc2nc3c(-c4ccc(OCc5ccc(OCCOC)nc5)cc4)cccn3n2)cn1` [Compound 3-5, 8-[4-[[6-(2-methoxyethoxy)-3-pyridyl]methoxy]phenyl]-N-[1-[3-(methylamino)propyl]pyrazol-4-yl]-[1,2,4]triazolo[1,5-a]pyridin-2-amine], the figures for the inhibition constant Ki in experiment [1] and in experiment [2] were 0.74 nM and 0.28 nM, respectively.

In the case of `Cn1cc(Nc2nc3c(N4CCC(CN)(c5ccc(Cl)cc5)CC4)cccn3n2)cn1` [D, 8-[4-(aminomethyl)-4-(4-chlorophenyl)-1-piperidyl]-N-(1-methylpyrazol-4-yl)-[1,2,4]triazolo[1,5-a]pyridin-2-amine], the inhibition constant Ki in experiment [1] was found to be 0.55 nM; in experiment [2], 0.94 nM.

Take `COC(=O)CN1CCC2(CC1)CN(C(=O)N1CC=C(c3cccn4nc(Nc5cnn(C)c5)nc34)CC1)C2` [E, methyl 2-[2-[4-[2-[(1-methylpyrazol-4-yl)amino]-[1,2,4]triazolo[1,5-a]pyridin-8-yl]-3,6-dihydro-2H-pyridine-1-carbonyl]-2,7-diazaspiro[3.5]nonan-7-yl]acetate]: the Ki in experiment [1] stood at 38 nM; in experiment [2], 20 nM.

Turning to `COC(=O)CNCC1(c2ccc(Cl)cc2)CCN(c2cccn3nc(Nc4cnn(C)c4)nc23)CC1` [F, formic acid; methyl 2-[[4-(4-chlorophenyl)-1-[2-[(1-methylpyrazol-4-yl)amino]-[1,2,4]triazolo[1,5-a]pyridin-8-yl]-4-piperidyl]methylamino]], the inhibitory constant (Ki) in experiment [1] was 1.4 nM; in experiment [2] it was 0.53 nM.

Take `Cn1cc(Nc2nc3c(N4CCC(CNCC(F)(F)F)(c5ccc(Cl)cc5)CC4)cccn3n2)cn1` [G, 8-[4-(4-chlorophenyl)-4-[(2,2,2-trifluoroethylamino)methyl]-1-piperidyl]-N-(1-methylpyrazol-4-yl)-[1,2,4]triazolo[1,5-a]pyridin-2-amine]: the results for the inhibition constant (Ki) in experiment [1] and in experiment [2] were 10 nM and 2.9 nM, respectively.
